The record followed here is patent US4714764A, “2-(4-pyridylaminomethyl)-benzimidazole derivatives having antiviral activity” (Maruishi Seiyaku Kabushiki Kaisha, priority 1985, dated 1987).

Where a name gives a salt, the structure may show the parent alone. Where only a bound is given, the exact number is not on record here.

One data set deals with enterovirus type 70. The data set is described as follows: Inhibition of virus cytopathogenic effect (CPE) in LLC-MK2 cells. It counts as cell-based. The settings on record: for CI (chemotherapeutic index): CI=CD50 /ID50; for IC50: Enterovirus D, enterovirus type 70, 100-300 TCID50, LLC-MK2 cells, 33° C., examined at 48, 72, 96 and 120 h, read-out: IC50 (lowest concentration that reduced virus CPE by 50% or more).

A short description of data set [1]: Morphological cytotoxicity in LLC-MK2 cells. The data set is classed as cell-based. The settings on record: monkey, 33° C., examined at 48, 72, 96 and 120 h, read-out: CD50 (lowest concentration that caused morphological cytotoxicity by 50% or more).

In the case of `Cl.Cl.c1ccc2[nH]c(CNc3ccncc3)nc2c1` [Compound I, 2-(4-pyridylaminomethyl) benzimidazole dihydrochloride], in the data set on enterovirus type 70, the “CI (chemotherapeutic index)” value was determined as 152 and the IC50 turned out to be 3.7 µg/mL. In data set [1], the CC50 was 562 µg/mL.
On the same counts, the results for `Clc1ccc2[nH]c(CNc3ccncc3)nc2c1` [Compound II, 2-(4-pyridylaminomethyl)-5(6)-chlorobenzimidazole dihydrochloride] are 99, 1.8 µg/mL and 178 µg/mL.
`O=C(c1ccccc1)c1ccc2[nH]c(CNc3ccncc3)nc2c1` [Compound III, 2-(4-pyridylaminomethyl)-5(6)-benzoylbenzimidazole dihydrochloride]: the IC50 in the data set with enterovirus type 70 was above 100 µg/mL. In addition, in data set [1], the CC50 is above 100 µg/mL.
Consider `COc1ccc2[nH]c(CNc3ccncc3)nc2c1` [Compound IV, 2-(4-pyridylaminomethyl)-5(6)-methoxybenzimidazole dihydrochloride], for which, in the data set with enterovirus type 70, the “CI (chemotherapeutic index)” value is on record as 64 and the IC50 worked out at 27.6 µg/mL. Besides, in data set [1], the CC50 was 1770 µg/mL.
Turning to `FC(F)(F)c1ccc2[nH]c(CNc3ccncc3)nc2c1` [Compound IX, 2-(4-pyridylaminomethyl)-5(6)-trifluoromethylbenzimidazole dihydrochloride], in the data set with enterovirus type 70, the “CI (chemotherapeutic index)” value is 64 and the IC50 was found to be 5.5 µg/mL. Further, the CC50 in data set [1] stood at 354 µg/mL.
Regarding `Cc1ccc2[nH]c(CNc3ccncc3)nc2c1` [Compound V, 2-(4-pyridylaminomethyl)-5(6)-methylbenzimidazole dihydrochloride], in the data set on enterovirus type 70, the “CI (chemotherapeutic index)” value is 311 and the IC50 was found to be 1.8 µg/mL. In addition, the CC50 in data set [1] is 562 µg/mL.
Consider `O=[N+]([O-])c1ccc2[nH]c(CNc3ccncc3)nc2c1` [Compound VI, 2-(4-pyridylaminomethyl)-5(6)-nitrobenzimidazole dihydrochloride], for which, in the data set on enterovirus type 70, the IC50 was above 100 µg/mL. In addition, the CC50 in data set [1] is above 100 µg/mL.
As to `Cl.Cl.Clc1cc2nc(CNc3ccncc3)[nH]c2cc1Cl` [Compound VII, 2-(4-pyridylaminomethyl)-5,6-dichlorobenzimidazole dihydrochloride], in the data set with enterovirus type 70, the “CI (chemotherapeutic index)” value stood at 126 and the IC50 was determined as 1.4 µg/mL. Also, in data set [1], the CC50 was determined as 177 µg/mL.
With `Nc1ccc2[nH]c(CNc3ccncc3)nc2c1` [Compound VIII, 2-(4-pyridylaminomethyl)-5(6)-aminobenzimidazole trihydrochloride], the IC50 in the data set on enterovirus type 70 was above 100 µg/mL. The CC50 in data set [1] is above 100 µg/mL.
Turning to `CCc1ccc2[nH]c(CNc3ccncc3)nc2c1` [Compound X, 2-(4-pyridylaminomethyl)-5(6)-ethylbenzimidazole dihydrochloride], in the data set with enterovirus type 70, the “CI (chemotherapeutic index)” value is 362 and the IC50 is 0.98 µg/mL. Further, the CC50 in data set [1] was determined as 354 µg/mL.
Regarding `Cc1cccc2[nH]c(CNc3ccncc3)nc12` [Compound XI, 2-(4-pyridylaminomethyl)-4(7)-methylbenzimidazole dihydrochloride], in the data set on enterovirus type 70, the IC50 is above 100 µg/mL. The CC50 in data set [1] is above 100 µg/mL.
With `Cc1cc2nc(CNc3ccncc3)[nH]c2cc1C.Cl.Cl` [Compound XII, 2-(4-pyridylaminomethyl)-5,6-dimethylbenzimidazole dihydrochloride], in the data set with enterovirus type 70, the “CI (chemotherapeutic index)” value is 239 and the IC50 is 3 µg/mL. Besides, the CC50 in data set [1] stood at 707 µg/mL.
